Test results as given in US6828327B2, “Macroheterocylic compounds useful as kinase inhibitors” (Ortho-McNeil Pharmaceutical, Inc., priority 2000, dated 2004).

Assays:
PKC-βI = target: T1, PKC-βI (Homo sapiens, UniProt P05771); assay: Protein Kinase C Scintillation Proximity Assay (SPA), PKC-βI; format: biochemical; details: inhibition value, recombinant human isozyme, 1 μM ATP
T1 construct: purchased PanVera, Madison Wis; host or cells: baculovirus expression vector
Protocol: (§1) The binding activity of a compound for Protein Kinase C (PKC) was assessed using a homogeneous Scintillation Proximity Assay according to the procedure below.
(§2) The different human PKC isozymes (were obtained from PanVera, Madison Wis. and had been prepared as recombinant enzymes produced from a baculovirus expression vector) were added to a reaction mixture containing a test compound, 20 mM HEPES (pH 7.4), 100 μM CaCl2, 10 mM MgCl2, 100 μg/mL phosphatidylserine, 20 μg/mL diacylglycerol, 1 μM ATP, 0.8 μCi (^33P)ATP, and 5 μg/mL biotinylated substrate peptide (Jing Zhao et al., J. Bio. Chem., 1998, 273, 23072). The reaction was incubated for 15 min at 30° C. Reactions were terminated by the addition of streptavidin-coated SPA beads (Amersham) in a solution containing 1 mM EGTA, 10 mM EDTA and 100 μM ATP. Beads were allowed to settle overnight and the plates read in a Wallac MICROBETA scintillation counter (PerkinElmer Life sciences, Wellesley, Mass.).
(§3) Values for inhibition of various PKC isozymes and GSK 3-β by certain compounds of the invention tested in the PKC SPA and GSK 3-β assays are shown in Table 1.

PKC-βII = target: T2, PKC-βII (Homo sapiens, UniProt P05771); assay: Protein Kinase C Scintillation Proximity Assay (SPA), PKC-βII; format: biochemical; details: inhibition value, recombinant human isozyme, 1 μM ATP
T2 construct: purchased PanVera, Madison Wis; host or cells: baculovirus expression vector
Protocol: as §1, §2, §3

PKC-γ = target: T3, PKC-γ (Homo sapiens, UniProt P05129); assay: Protein Kinase C Scintillation Proximity Assay (SPA), PKC-γ; format: biochemical; details: inhibition value, recombinant human isozyme, 1 μM ATP
T3 construct: purchased PanVera, Madison Wis; host or cells: baculovirus expression vector
Protocol: as §1, §2, §3

GSK 3-β = target: T4, GSK 3-β (Oryctolagus cuniculus, UniProt G1T8E2); assay: Glycogen Synthase Kinase 3-β Assay; format: biochemical, rabbit; details: for IC50: inhibition value, recombinant rabbit GSK 3-β, PPI-2 substrate; for GSK 3-β % @ 0.1 μM: at 0.1 μM; for GSK 3-β % @ 1 μM: at 1 μM
T4 construct: purchased New England Biolabs, Beverly Mass
Protocol: The inhibitory activity of a compound against Glycogen Synthase Kinase 3-β (GSK 3-β) activity was assessed using a recombinant rabbit GSK 3-β according to the procedure below.
The mixture was reacted for 90 minutes at 30° C. to allow phosphorylation of the PPI-2 protein and then the protein in the reaction was precipitated using 10% trichloroacetic acid (TCA). The precipitated protein was collected on filter plates (MultiScreen-DV, Millipore, Bedford Mass.), which were subsequently washed. Finally, the radioactivity was quantified using a TopCount Scintillation Counter (Packard, Meridian Conn.). […] Staurosporine or Valproate (both available from several commercial sources), known inhibitors of GSK-3-β, were used as a positive control for screening.

PKC α = PKC α (Homo sapiens, UniProt P17252); assay: Protein Kinase C Scintillation Proximity Assay (SPA), PKC-α; format: biochemical; set-up: purchased PanVera, Madison Wis; host or cells: baculovirus expression vector; details: inhibition value, recombinant human isozyme, 1 μM ATP
Protocol: as §1
The reaction was incubated for 15 min at 30° C. Reactions were terminated by the addition of streptavidin-coated SPA beads (Amersham) in a solution containing 1 mM EGTA, 10 mM EDTA and 100 μM ATP. Beads were allowed to settle overnight and the plates read in a Wallac MICROBETA scintillation counter (PerkinElmer Life sciences, Wellesley, Mass.).

L6 muscle cells = assay: Cell-Based GSK 3-β Assay (glycogen content of L6 muscle cells); details: for 14C-Glucose Incorporation (dpm): L6 cells, 2 hours
Protocol: Glycogen content of L6 muscle cells was measured according to the method described in Berger and Hayes, Anal. Biochem., 1998, 261, 159-163.
Briefly, L6 cells were serum starved overnight in alpha-MEM containing 0.1%. On the following day, cells were washed three times with 300 μL KRPH buffer (150 mM NaCl, 5 mM KCl, 2.9 mM Na2HPO4, 1.25 mM MgSO4, 1.2 mM CaCl2, 10 mM HEPES, pH 7.4) and labeled with 200 μL alpha-MEM containing 5.5 mM ^14C-Glucose (0.1 μCi) in the presence of vehicle (DMSO) or compounds. After 2 hours, cells were washed three times with ice-cold PBS and glycogen was precipitated for 2 hours using ice-cold 66% EtOH. Precipitated glycogen was then washed three times with ice-cold 66% EtOH and ^14C-glycogen was quantified using a TopCount (Packard).
Compounds were tested in separate experiments at the dose levels shown. Where shown, the 0.0 μM dose was used as a control.

T1 sequence (P05771 whole entry): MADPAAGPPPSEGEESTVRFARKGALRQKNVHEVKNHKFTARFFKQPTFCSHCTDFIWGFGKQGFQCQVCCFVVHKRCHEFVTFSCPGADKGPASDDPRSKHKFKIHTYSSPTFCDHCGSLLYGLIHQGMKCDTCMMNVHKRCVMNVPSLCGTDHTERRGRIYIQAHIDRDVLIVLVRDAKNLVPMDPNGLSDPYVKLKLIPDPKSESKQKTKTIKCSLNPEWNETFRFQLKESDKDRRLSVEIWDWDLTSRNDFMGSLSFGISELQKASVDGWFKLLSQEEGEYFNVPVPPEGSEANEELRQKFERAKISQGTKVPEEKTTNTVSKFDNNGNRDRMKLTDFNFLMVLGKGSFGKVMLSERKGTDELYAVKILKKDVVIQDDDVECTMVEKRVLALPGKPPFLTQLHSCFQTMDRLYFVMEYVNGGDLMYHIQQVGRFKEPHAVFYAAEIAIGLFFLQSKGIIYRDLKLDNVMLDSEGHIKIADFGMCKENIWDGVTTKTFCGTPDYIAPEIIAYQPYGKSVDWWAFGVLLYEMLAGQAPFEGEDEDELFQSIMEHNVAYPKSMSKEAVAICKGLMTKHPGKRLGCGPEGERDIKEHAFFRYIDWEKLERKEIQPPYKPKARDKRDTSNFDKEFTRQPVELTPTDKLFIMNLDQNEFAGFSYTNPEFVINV
T2 sequence (P05771 1-673 isoform P05771-2): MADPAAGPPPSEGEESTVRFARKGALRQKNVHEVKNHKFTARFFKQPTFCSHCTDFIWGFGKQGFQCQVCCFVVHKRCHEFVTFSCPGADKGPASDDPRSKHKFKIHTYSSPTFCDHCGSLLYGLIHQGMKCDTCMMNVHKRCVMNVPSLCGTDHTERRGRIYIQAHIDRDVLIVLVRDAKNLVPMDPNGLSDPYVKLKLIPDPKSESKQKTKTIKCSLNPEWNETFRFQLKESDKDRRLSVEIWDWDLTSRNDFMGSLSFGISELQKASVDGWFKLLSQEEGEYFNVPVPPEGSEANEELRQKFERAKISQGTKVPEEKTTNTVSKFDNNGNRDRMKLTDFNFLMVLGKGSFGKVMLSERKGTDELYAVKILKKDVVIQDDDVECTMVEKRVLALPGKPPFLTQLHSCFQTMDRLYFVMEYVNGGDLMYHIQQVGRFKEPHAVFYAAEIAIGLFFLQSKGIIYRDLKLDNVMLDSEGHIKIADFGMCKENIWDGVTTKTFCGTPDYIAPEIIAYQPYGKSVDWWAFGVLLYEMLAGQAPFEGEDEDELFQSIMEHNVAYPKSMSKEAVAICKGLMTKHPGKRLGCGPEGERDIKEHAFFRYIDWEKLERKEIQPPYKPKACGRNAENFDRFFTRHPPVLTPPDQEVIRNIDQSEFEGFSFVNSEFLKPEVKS
T4 sequence (G1T8E2 1-432): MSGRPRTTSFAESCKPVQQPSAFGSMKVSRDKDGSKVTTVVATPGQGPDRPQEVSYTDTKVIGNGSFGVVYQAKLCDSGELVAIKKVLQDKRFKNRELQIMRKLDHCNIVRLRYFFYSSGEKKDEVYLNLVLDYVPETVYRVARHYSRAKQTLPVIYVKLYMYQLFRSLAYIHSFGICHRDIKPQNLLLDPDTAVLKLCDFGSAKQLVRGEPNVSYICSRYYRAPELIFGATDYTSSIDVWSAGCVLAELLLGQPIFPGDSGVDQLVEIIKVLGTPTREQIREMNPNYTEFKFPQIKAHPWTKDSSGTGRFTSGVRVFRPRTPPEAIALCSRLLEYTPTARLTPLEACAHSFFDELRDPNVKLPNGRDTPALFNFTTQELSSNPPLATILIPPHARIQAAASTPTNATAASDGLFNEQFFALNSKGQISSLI

SMILES | IC50 (PKC-βII) | IC50 (PKC-γ) | IC50 (GSK 3-β) | IC50 (PKC α) | also measured
O=C1NC(=O)C2=C1c1cn(c3ncccc13)CCOCCOCCOCCOCCOCCn1cc2c2cccnc21 [Cpd 3] | > 100000 nM | > 100000 nM | 33 nM | > 100000 nM | IC50 (PKC-βI): > 100000 nM
O=C1NC(=O)C2=C1c1cn(c3ccccc13)CCOCCOCCn1cc2c2ccccc21 [Cpd 4] | 99 nM | 3460 nM | 102 nM | 1220 nM | IC50 (PKC-βI): 1590 nM
O=C1NC(=O)C2=C1c1cn(c3ccccc13)CCOCCOCCOCCn1cc2c2ccccc21 [Cpd 5] | 16 nM | 1350 nM | 49 nM | 412 nM | IC50 (PKC-βI): 349 nM; 14C-Glucose Incorporation (dpm) (L6 muscle cells; dose 0.01 μM): 2884 dpm; 14C-Glucose Incorporation (dpm) (L6 muscle cells; dose 0.1 μM): 2988 dpm; 14C-Glucose Incorporation (dpm) (L6 muscle cells; dose 0.3 μM): 3339 dpm; 14C-Glucose Incorporation (dpm) (L6 muscle cells; dose 3 μM, 0.0 μM control Cpd 1 1640, Cpd 2 2078): 3438 dpm; 14C-Glucose Incorporation (dpm) (L6 muscle cells; dose 10 μM, 0.0 μM control Cpd 1 1640, Cpd 2 2078): 4700 dpm; glycogen synthesis in L6 skeletal muscle cells (L6 muscle cells; upon exposure to compound, result in words): increased glycogen synthesis
O=C1NC(=O)C2=C1c1cn(c3ccccc13)CCOCCOCCOCCOCCn1cc2c2ccccc21 [Cpd 6] | 212 nM | 4000 nM | 45 nM | 2560 nM | IC50 (PKC-βI): 1480 nM
O=C1NC(=O)C2=C1c1cn(c3ccccc13)CCOCCOCCOCCOCCOCCn1cc2c2ccccc21 [Cpd 7] | 285 nM | 3260 nM | 33 nM | 2590 nM | IC50 (PKC-βI): 3070 nM
O=C1NC(=O)C2=C1c1cn(c3ccccc13)Cc1cccc(c1)Cn1cc2c2cccnc21 [Cpd 8] | 288 nM | 783 nM | 233 nM | 1530 nM | IC50 (PKC-βI): 1780 nM
O=C1NC(=O)C2=C1c1cn(c3ccccc13)Cc1cccc(n1)Cn1cc2c2cccnc21 [Cpd 9] | 35 nM | 228 nM | 164 nM | 319 nM | IC50 (PKC-βI): 338 nM
CCN1CCOCCn2cc(c3ccccc32)C2=C(C(=O)NC2=O)c2cn(c3ccccc23)CCOCC1 [Cpd 12] | 8 nM | 150 nM | 33 nM | 20 nM | 
CN1CCOCCn2cc(c3ccccc32)C2=C(C(=O)NC2=O)c2cn(c3ccccc23)CCOCC1 [Cpd 13] | 40 nM | 370 nM |  | 50 nM | 
CC(C)N1CCOCCn2cc(c3ccccc32)C2=C(C(=O)NC2=O)c2cn(c3ccccc23)CCOCC1 [Cpd 14] | 15 nM | 34 nM | 76 nM | 19 nM | 
CN1CCN(C)CCn2cc(c3ccccc32)C2=C(C(=O)NC2=O)c2cn(c3ccccc23)CCN(C)CC1 [Cpd 15] | 27 nM | 22 nM | 93 nM | 42 nM | 
CN1CCOCCn2cc(c3ccccc32)C2=C(C(=O)NC2=O)c2nn(c3ccccc23)CCOCC1 [Cpd 16] | 63 nM |  |  |  | GSK 3-β % @ 0.1 μM (GSK 3-β): 37% @ 0.1 μM
CCN1CCOCCn2cc(c3ccccc32)C2=C(C(=O)NC2=O)c2nn(c3ccccc23)CCOCC1 [Cpd 17] | 385 nM |  |  |  | GSK 3-β % @ 0.2 μM (GSK 3-β; at 0.2 μM): 31% @ 0.2 μM
CCN1CCOCCn2cc(c3cccnc32)C2=C(C(=O)NC2=O)c2cn(c3ncccc23)CCOCC1 [Cpd 18] |  |  | 9200 nM |  | 
O=C1NC(=O)C2=C1c1cn(c3ncccc13)CCOCCSCCOCCn1cc2c2cccnc21 [Cpd 19] |  |  | 110 nM |  | 
O=C1NC(=O)C2=C1c1cn(c3ncccc13)CCCCCNCCCCCn1cc2c2cccnc21 [Cpd 20] |  |  | 610 nM |  | 
CCN1CCCCCn2cc(c3cccnc32)C2=C(C(=O)NC2=O)c2cn(c3ncccc23)CCCCC1 [Cpd 21] |  |  | 1440 nM |  | 
O=C1NC(=O)C2=C1c1cn(c3ncccc13)CCCCCNCCCCn1cc2c2cccnc21 [Cpd 22] |  |  |  |  | GSK 3-β % @ 1 μM (GSK 3-β): 30% @ 1 μM
CCN1CCCCCn2cc(c3cccnc32)C2=C(C(=O)NC2=O)c2cn(c3ncccc23)CCCC1 [Cpd 23] |  |  |  |  | GSK 3-β % @ 1 μM (GSK 3-β): 46% @ 1 μM
O=C1NC(=O)C2=C1c1cn(c3ncccc13)CCCCc1cccc(n1)CCCCn1cc2c2cccnc21 [Cpd 24] |  |  | 210 nM |  | 
O=C1CCCCCCn2cc(c3cccnc32)C2=C(C(=O)NC2=O)c2cn(c3ncccc23)CCCC1 [Cpd 25] |  |  | 80 nM |  | 
O=C1CCCCn2cc(c3cccnc32)C2=C(C(=O)NC2=O)c2cn(c3ncccc23)CCCC1 [Cpd 26] |  |  | 90 nM |  | 
O=C1NC(=O)C2=C1c1cn(c3ncccc13)C[C@H](O)CCCCCC[C@@H](O)Cn1cc2c2cccnc21 [Cpd 27] |  |  | 1180 nM |  | 
O=C1NC(=O)C2=C1c1cn(c3ncccc13)CCOCCOCCn1cc2c2cccnc21 [Cpd 28] |  |  |  |  | GSK 3-β % @ 0.5 μM (GSK 3-β; at 0.5 μM): 48% @ 0.5 μM
COCCN1CCOCCn2cc(c3ccccc32)C2=C(C(=O)NC2=O)c2nn(c3ccccc23)CCOCC1 [Cpd 29] | 369 nM |  |  |  | GSK 3-β % @ 0.1 μM (GSK 3-β): 30% @ 0.1 μM
O=C1NC(=O)C2=C1c1cn(c3ccccc13)CCOCCN(CCO)CCOCCn1cc2c2ccccc21 [Cpd 30] | 11 nM |  | 64 nM |  | 
CN1CCCn2cc(c3ccccc32)C2=C(C(=O)NC2=O)c2cn(c3ccccc23)CCOCCOCC1 [Cpd 31] | 7 nM | 24 nM |  | 14 nM | 
